Source: ChEMBL document CHEMBL5113383, “Application of the All-Hydrocarbon Stapling Technique in the Design of Membrane-Active Peptides” (J Med Chem, 2022)
Positions of bridges follow the written chain, without caps; N, C: chain ends. Non-standard residues stand in square brackets, D forms with d. Residues, ends and D or L forms follow the SMILES beside them. S5 = C=CCCC[C@](C)(N)C(=O)O; Nle = CCCC[C@H](N)C(=O)O

Key:
[1] = Hemolytic activity in rabbit erythrocytes; type: toxicity, cell-based, Oryctolagus cuniculus, Erythrocyte
[2] = Hemolytic activity in human erythrocytes; type: toxicity, cell-based, Erythrocyte
[3] = Hemolytic activity in human erythrocytes incubated for 1 hr; type: toxicity, cell-based, Erythrocyte; settings: read-out: Activity
[4] = Hemolytic activity in human erythrocytes incubated for 30 mins; type: toxicity, cell-based, Erythrocyte

For `CC[C@H](C)[C@H](NC(=O)CNC(C)=O)C(=O)NCC(=O)N[C@@H](C)C(=O)N[C@H](C(=O)N[C@@H](CC(C)C)C(=O)N[C@@H](CCCCN)C(=O)N[C@H](C(=O)N[C@@H](CC(C)C)C(=O)N[C@H](C(=O)N[C@H](C(=O)NCC(=O)N[C@@H](CC(C)C)C(=O)N1CCC[C@H]1C(=O)N[C@]1(C)CCCCCC/C=C\CCC[C@@](C)(C(=O)N[C@@H](CCCCN)C(=O)N[C@@H](CCCNC(=N)N)C(=O)N[C@@H](CCC(N)=O)C(=O)N[C@@H](CCC(N)=O)C(N)=O)NC(=O)[C@H](CCCCN)NC(=O)[C@H]([C@@H](C)CC)NC(=O)[C@H](Cc2c[nH]c3ccccc23)NC(=O)[C@H](CO)NC(=O)[C@H]([C@@H](C)CC)NC(=O)[C@H](CC(C)C)NC1=O)[C@@H](C)O)[C@@H](C)O)C(C)C)C(C)C`, the HC50 [1] was 700 nM.
`CC[C@H](C)[C@H](NC(=O)CNC(C)=O)C(=O)NCC(=O)N[C@@H](C)C(=O)N[C@H](C(=O)N[C@@H](CC(C)C)C(=O)N[C@@H](CCCCN)C(=O)N[C@H](C(=O)N[C@@H](CC(C)C)C(=O)N[C@H](C(=O)N[C@H](C(=O)NCC(=O)N[C@@H](CC(C)C)C(=O)N1CCC[C@H]1C(=O)N[C@@H](C)C(=O)N[C@@H](CC(C)C)C(=O)N[C@H](C(=O)N[C@@H](CO)C(=O)N[C@@H](Cc1c[nH]c2ccccc12)C(=O)N[C@H](C(=O)N[C@@H](CCCCN)C(=O)N[C@@H](CCCNC(=N)N)C(=O)N[C@@H](CCCCN)C(=O)N[C@@H](CCCNC(=N)N)C(=O)N[C@@H](CCC(N)=O)C(=O)N[C@@H](CCC(N)=O)C(N)=O)[C@@H](C)CC)[C@@H](C)CC)[C@@H](C)CC)[C@@H](C)O)C(C)C)C(C)C` gave an HC50 [1] of 2600 nM.
In the case of `CC[C@H](C)[C@H](NC(=O)CN)C(=O)N[C@@H](CCSC)C(=O)N[C@@H](CO)C(=O)N[C@@H](CO)C(=O)N[C@@H](CC(C)C)C(=O)N[C@@H](CCSC)C(=O)N[C@@H](CCCCN)C(=O)N[C@@H](CCCCN)C(=O)N[C@@H](CC(C)C)C(=O)N[C@@]1(C)CCC/C=C\CCC[C@@](C)(C(=O)N[C@@H](CCCCN)C(N)=O)NC(=O)[C@H]([C@@H](C)CC)NC(=O)[C@H](Cc2cnc[nH]2)NC(=O)[C@H](C)NC1=O` (H-GIMSSLMKKL[S5]AHI[S5]K-NH2; staple (Z) 11-15), the HC50 [2] is reported as 125 µM.
Work on `CC(C)[C@@H]1NC(=O)[C@@](C)(NC(=O)[C@H](C)NC(=O)[C@H](CCCCN)NC(=O)CNC(=O)[C@H](Cc2ccccc2)NC(=O)[C@H](CCCCN)NC(=O)[C@H](CCCCN)NC(=O)[C@H](CCCCN)NC(=O)[C@H](CO)NC(=O)[C@H](Cc2cnc[nH]2)NC(=O)[C@]2(C)CCC/C=C\CCC[C@](C)(NC(=O)CN)C(=O)NCC(=O)N[C@@H](CCCCN)C(=O)N[C@@H](Cc3ccccc3)C(=O)N2)CCC/C=C\CCC[C@@](C)(C(=O)N[C@@H](C)C(=O)N[C@@H](CCCCN)C(=O)N[C@@H](CCCCN)C(N)=O)NC(=O)[C@H](CCC(=O)O)NC(=O)CNC1=O` (H-G[S5]GKF[S5]HSKKKFGKA[S5]VGE[S5]AKK-NH2; staple (Z) 2-6, 16-20) yielded a hemolysis at 1 h [3] of under 1% and an HC50 [2] of over 400 µM.
In the case of `CC[C@H](C)[C@H](N)C(=O)N[C@@H](CC(=O)O)C(=O)N[C@@H](Cc1c[nH]c2ccccc12)C(=O)N[C@@H](CCCCN)C(=O)N[C@@H](CCCCN)C(=O)N[C@@]1(C)CCC/C=C\CCC[C@@](C)(C(=O)N[C@@H](CCCCN)C(=O)N[C@@H](CCC(N)=O)C(=O)N[C@H](C(=O)N[C@@H](CC(C)C)C(=O)O)[C@@H](C)CC)NC(=O)[C@H](C)NC(=O)[C@H](CC(=O)O)NC(=O)[C@H](CC(C)C)NC1=O` (H-IDWKK[S5]LDA[S5]KQIL-OH; staple (Z) 6-10), the HC50 at 0.5 h [4] is reported as 12.3 µM.
Work on `CC(C)C[C@@H]1NC(=O)[C@H](CCCCN)NC(=O)[C@H](Cc2c[nH]c3ccccc23)NC(=O)[C@@](C)(NC(=O)[C@@H](N)CCCCN)CCC/C=C\CCC[C@@](C)(C(=O)N[C@@H](CCCCN)C(N)=O)NC1=O` (H-K[S5]WKL[S5]K-NH2; staple (Z) 2-6) yielded an HC50 at 0.5 h [4] of under 1 µM.
`CCCC[C@@H]1NC(=O)[C@H](CCCCN)NC(=O)[C@H](Cc2c[nH]c3ccccc23)NC(=O)[C@@](C)(NC(=O)[C@@H](N)CCCCN)CCC/C=C\CCC[C@@](C)(C(=O)N[C@@H](CCCCN)C(N)=O)NC1=O` (H-K[S5]WK[Nle][S5]K-NH2; staple (Z) 2-6) showed an HC50 at 0.5 h [4] of 3.3 µM.
